These results are taken from PubChem BioAssay (NCI).

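Five concentrations, 48 hours, 96-well plates. GI50 marks 50% less growth. TGI marks complete inhibition of growth.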

The test system of one test is COLO 205 colon. The experiment in a line: NCI anticancer screen, dose series, 48 h.
For the compound `COc1cc2ccc3c4cc(OC)c(OC(C)C)cc4cnc3c2cc1OC`, the TGI is more than 100 µM.
The compound `CN1NC(=Nc2ccccc2)Sc2c1cnn(-c1ccccc1)c2=O` registered a TGI of more than 100 µM.
On to `C1C[OH+]CCNCC[OH+]CC[OH+]CCN1.[Cl-].[Pt+4]`, for which the GI50 was more than 100 µM and the TGI is more than 100 µM.
For `CC(=O)c1sc(-c2nc(C)c(C(=O)/C=C\c3ccc(/C=C\C(=O)c4sc(-c5nc(C)c(C(C)=O)s5)nc4C)cc3)s2)nc1C`, the TGI is more than 100 µM.
In turn, `COC(=O)/C(C)=C/[N+](=O)[O-]` had a TGI of 16.6 µM.
In turn, `Cc1ccc(C2(O)CC(c3ccc([N+](=O)[O-])o3)=NN2C(=O)COc2ccc(Cl)cc2)cc1` (stereo unspecified) returned a TGI of 15.3 µM.
In the case of `CC1=NN(C(=O)CC(=O)N(C(=O)c2ccccc2Cl)c2ccc(C)cc2)C(=O)C1N=Nc1ccc([N+](=O)[O-])cc1` (stereo unspecified), the TGI was more than 58 µM.
`COc1cccc(-n2c3nc(=O)n(C)c(=O)c-3nc3ccccc32)c1` had a TGI of 13.1 µM.
As to `Cc1cc(C)c(C2[C@H]3C(=O)N(c4ccc(Cc5ccc(N6C(=O)[C@@H]7ON(c8ccccc8)C(c8c(C)cc(C)cc8C)[C@@H]7C6=O)cc5)cc4)C(=O)[C@H]3ON2c2ccccc2)c(C)c1` (stereo partly specified), the TGI was more than 100 µM.
With `COC(=O)OCC1OC(N2C(=O)NC(=O)C(Br)C2N=[N+]=[N-])CC1OC(=O)OC` (stereo unspecified), the TGI is more than 100 µM.
On the same count and under the same terms, with `CC12CCCCC1(C)C2Sc1ccccc1` (stereo unspecified) the figure was more than 100 µM; with `CCCCOC(=O)NC(=O)c1cn(CCCOC(=O)NCCCCCCNC(=O)OCCCn2cc(C(=O)NC(=O)OCCCC)c(=O)[nH]c2=O)c(=O)[nH]c1=O`, more than 100 µM; with `C[C@@]12CCCc3coc(c31)C(=O)c1cc3c(cc12)C(=O)C=CC3=O`, more than 1 µM.
For `COc1cc(C)c2c(c1C)OC(=O)c1c(C)c(Cl)c(O)c(C=O)c1O2`, the TGI was 76.7 µM.
Consider `C=CCNC(=O)N(CCC)CCCCC(NC(C)=O)C(=O)NCc1ccccc1` (stereo unspecified), for which the TGI is more than 100 µM.
On the same count and under the same terms, in the case of `COC(=O)/C(C=O)=C/Sc1ccccc1` it was 42.9 µM.
With `C=C1C[C@]23CCC4C(C)(C)C(=O)CC[C@]4(C)C2C[C@H]1C(O)C3=O` (stereo partly specified), the TGI was more than 75 µM.
For `O=C1CC2C(=O)N(Cc3ccccc3)C1C=C2S(=O)(=O)c1ccccc1` (stereo unspecified), the TGI is more than 100 µM.
As for `N.N.N.N.[Cl-].[Co+3].[N-]=[N+]=[N-].[N-]=[N+]=[N-]`, the GI50 is more than 100 µM and the TGI was more than 100 µM.
Consider `O=c1[nH]c2cc(Cl)ccc2nc1/C(=N\O)C(O)c1ccc(Cl)cc1Cl` (stereo unspecified), for which the TGI was more than 100 µM.
In turn, `CC(C)CCCC(C)[C@H]1CCC2[C@H]3C(CC[C@@]21C)[C@@]1(C)CCC=C[C@]12C[C@@H]2[C@@H]3O` (stereo partly specified) returned a TGI of more than 100 µM.
Take `C=C1C(=O)O[C@H]2[C@H]1CC/C(COC(=O)c1ccc(Cl)nc1)=C\CC[C@@]1(C)O[C@@H]21`: the GI50 was 1.74 µM and the TGI was 3.96 µM.
Turning to `O=C(Nc1cc(Cl)ccc1Cl)C(=O)C(c1cnc2ccccc2n1)[N+](=O)[O-]` (stereo unspecified), the TGI is more than 100 µM.
For the compound `Cc1cc[c-]cc1.Fc1c[c-]c(-c2ccccn2)c(F)c1.[Pt+2].c1ccc(P(C[PH+](c2ccccc2)c2ccccc2)c2ccccc2)cc1`, the GI50 was 1.84 µM and the TGI stood at 3.76 µM.
On to `COc1cc2ncn(-c3cc(OCCc4ccccc4)c(C(N)=O)s3)c2cc1OC`, for which the GI50 is 24.4 µM and the TGI was more than 25 µM.
`Nc1nc(CCl)nc(Nc2ccccc2)n1` registered a TGI of 43.4 µM.
As for `COc1ccc(OC)c2c(/C=C/c3ccc(N(C)C)cc3)ccnc12`, the TGI was more than 10 µM.
The compound `CN[C@@H](C)[C@H](NC)c1ccccc1` had a TGI of more than 100 µM.
`O=S1OC2(c3ccccc3-c3ccccc32)c2ccccc21` (stereo unspecified) registered a TGI of more than 100 µM.

A further test deals with EKVX NSCLC. Kind of test: NCI anticancer screen, dose series, 48 h.
Consider `COc1cc2ccc3c4cc(OC)c(OC(C)C)cc4cnc3c2cc1OC`, for which the TGI is more than 100 µM.
The same measure, in the same setting: in the case of `CN1NC(=Nc2ccccc2)Sc2c1cnn(-c1ccccc1)c2=O` it was more than 100 µM; in that of `CC(=O)c1sc(-c2nc(C)c(C(=O)/C=C\c3ccc(/C=C\C(=O)c4sc(-c5nc(C)c(C(C)=O)s5)nc4C)cc3)s2)nc1C`, more than 100 µM; in that of `COC(=O)/C(C)=C/[N+](=O)[O-]`, 63.6 µM.
Turning to `Cc1ccc(C2(O)CC(c3ccc([N+](=O)[O-])o3)=NN2C(=O)COc2ccc(Cl)cc2)cc1` (stereo unspecified), the TGI came to 18.8 µM.
Still for that read-out and setting: in the case of `CC1=NN(C(=O)CC(=O)N(C(=O)c2ccccc2Cl)c2ccc(C)cc2)C(=O)C1N=Nc1ccc([N+](=O)[O-])cc1` (stereo unspecified) it was more than 100 µM.
Still for that read-out and setting: in the case of `COc1cccc(-n2c3nc(=O)n(C)c(=O)c-3nc3ccccc32)c1` it was 82.1 µM; in that of `CC(C)(C=O)CC(C#N)/C(=N\NC(N)=O)C(=O)Nc1ccccc1C(N)=O` (stereo unspecified), more than 100 µM; in that of `Cc1cc(C)c(C2[C@H]3C(=O)N(c4ccc(Cc5ccc(N6C(=O)[C@@H]7ON(c8ccccc8)C(c8c(C)cc(C)cc8C)[C@@H]7C6=O)cc5)cc4)C(=O)[C@H]3ON2c2ccccc2)c(C)c1` (stereo partly specified), more than 100 µM.
`CC12CCCCC1(C)C2Sc1ccccc1` (stereo unspecified) showed a TGI of more than 96.8 µM.
For `CCCCOC(=O)NC(=O)c1cn(CCCOC(=O)NCCCCCCNC(=O)OCCCn2cc(C(=O)NC(=O)OCCCC)c(=O)[nH]c2=O)c(=O)[nH]c1=O`, the TGI was more than 100 µM.
Compound `C[C@@]12CCCc3coc(c31)C(=O)c1cc3c(cc12)C(=O)C=CC3=O` displayed a TGI of 34.1 µM.
`COc1cc(C)c2c(c1C)OC(=O)c1c(C)c(Cl)c(O)c(C=O)c1O2` displayed a TGI of 26.4 µM.
`C=CCNC(=O)N(CCC)CCCCC(NC(C)=O)C(=O)NCc1ccccc1` (stereo unspecified) registered a TGI of more than 100 µM.
On the same count and under the same terms, in the case of `COC(=O)/C(C=O)=C/Sc1ccccc1` it was more than 100 µM; in that of `C=C1C[C@]23CCC4C(C)(C)C(=O)CC[C@]4(C)C2C[C@H]1C(O)C3=O` (stereo partly specified), more than 75 µM.
`O=C1CC2C(=O)N(Cc3ccccc3)C1C=C2S(=O)(=O)c1ccccc1` (stereo unspecified) had a TGI of more than 100 µM.
For the compound `N.N.N.N.[Cl-].[Co+3].[N-]=[N+]=[N-].[N-]=[N+]=[N-]`, the GI50 is more than 100 µM and the TGI is more than 100 µM.
As to `CC(C)CCCC(C)[C@H]1CCC2[C@H]3C(CC[C@@]21C)[C@@]1(C)CCC=C[C@]12C[C@@H]2[C@@H]3O` (stereo partly specified), the TGI is more than 100 µM.
For `C=C1C(=O)O[C@H]2[C@H]1CC/C(COC(=O)c1ccc(Cl)nc1)=C\CC[C@@]1(C)O[C@@H]21`, the GI50 is 3.41 µM and the TGI came out at 13.6 µM.
The compound `O=C(Nc1cc(Cl)ccc1Cl)C(=O)C(c1cnc2ccccc2n1)[N+](=O)[O-]` (stereo unspecified) yielded a TGI of more than 100 µM.
Consider `Cc1cc[c-]cc1.Fc1c[c-]c(-c2ccccn2)c(F)c1.[Pt+2].c1ccc(P(C[PH+](c2ccccc2)c2ccccc2)c2ccccc2)cc1`, for which the GI50 is 2.32 µM and the TGI came out at 12.7 µM.
For the compound `COc1cc2ncn(-c3cc(OCCc4ccccc4)c(C(N)=O)s3)c2cc1OC`, the GI50 was more than 25 µM and the TGI is more than 25 µM.
